According to patent publication US11311014B2, “Crystalline forms of ethyl[3-[2-chloro-4-fluoro-5-(1-methyl-6-trifluoromethyl-2,4-dioxo-1,2,3,4-tetrahydropyrimidin-3-yl)phenoxy]-2-pyridyloxy]acetate” (BASF SE, priority 2017, dated 2022):

Experiments:
[1] = Stability of modifications suspended in solvent (conversion of crystal modification); format: physicochemical
Method: (§1) Studies on the Stability of the modifications of compound of formula (I)
A mixture of forms A and B was suspended in ethanol at 25° C.
Form C.II.1 (consisting of 30 wt. % of form A and 70 wt. % of form D) was suspended in ethanol at 25° C.
Form C.II.1 (consisting of 30 wt. % of form A and 70 wt. % of form D) was suspended in iso-propanol at 25° C.
Form CII.1 (consisting of 30 wt. % of form A and 70 wt. % of form D) was suspended in iso-propanol at 50° C.

[2] = Storage stability of dry powder at room temperature (conversion of crystal modification); format: physicochemical; conditions: about 6 weeks
Description: as §1

CCOC(=O)COc1ncccc1Oc1cc(-n2c(=O)cc(C(F)(F)F)n(C)c2=O)c(F)cc1Cl [Form C.II.1]
Stability of the modification: phase conversion in suspension ([1]; suspended in ethanol at 25° C., after 7 days): converted into form A
Stability of the modification: phase conversion in suspension ([1]; suspended in iso-propanol at 25° C., after 7 days): converted into form A
Stability of the modification: phase conversion in suspension ([1]; suspended in iso-propanol at 50° C., after 7 days): converted into form A

CCOC(=O)COc1ncccc1Oc1cc(-n2c(=O)cc(C(F)(F)F)n(C)c2=O)c(F)cc1Cl [form B, ethyl[3-[2-chloro-4-fluoro-5-(1-methyl-6-trifluoromethyl-2,4-dioxo-1,2,3,4-tetrahydropyrimidin-3-yl)phenoxy]-2-pyridyloxy]acetate]
Stability of the modification: phase conversion during storage [2]: converts partially into form A

CCOC(=O)COc1ncccc1Oc1cc(-n2c(=O)cc(C(F)(F)F)n(C)c2=O)c(F)cc1Cl [mixture of forms A and B]
Stability of the modification: phase conversion in suspension ([1]; suspended in ethanol at 25° C., after 5 days): converted into form A
